# Measurements taken from patent US20090264415A2 (priority 2004, published 2009).
# System: peripheral blood mononuclear cells (PBMC) stimulated with allogeneic PBMC or EBV-transformed human B cells (RPMI1788)
# Assay: Mixed lymphocyte reaction (MLR) assay
# Format: cell-based
# Settings: 50% suppression of the MLR, [3H]-thymidine incorporation; read-out: MLR
# Description: Pyrido[3,2-d]pyrimidine derivatives were first dissolved (10 mM) in dimethyl-sulfoxide (hereinafter referred as DMSO) and further diluted in culture medium before use for the following in vitro experiments. […] Some pyrido[3,2-d]pyrimidine derivatives described herein were tested in the following mixed lymphocyte reaction (MLR) assay.
# Peripheral blood mononuclear cells (hereinafter referred as PBMC) were isolated from heparinized peripheral blood by density gradient centrifugation over Lymphoprep (Nycomed, Maorstua, Norway). Allogeneic PBMC or Eppstein-Barr Virus-transformed human B cells [commercially available under the trade name RPM11788 (ATCC name CCL156)] which strongly express B7-1 and B7-2 antigens were used as stimulator cells after irradiation with 30 Gy. MLR was performed in triplicate wells. After 5 days incubation at 37° C., 1 μCi [^3H]-thymidine was added to each cup. After a further 16 hours incubation, cells were harvested and counted in a β-counter. Inhibition of proliferation by a compound described in some of the present examples was counted while using the formula: [formula] wherein cpm is the thymidine count per minute. The MLR assay is regarded by those skilled in the art as an in vitro analogue of the transplant rejection since it is based on the recognition of allogeneic major histocompatibility antigens on the stimulator leukocytes, by responding lymphocytes.
row,Compound,IC50 [µM]
1,"COc1ccc(-c2ccc3nc(Nc4ccc(C)cc4)nc(N4CCN(C(=O)Nc5cccc(C)c5)CC4)c3n2)cc1OC [Example 91, 2-(p-tolylamino)-4-[(N-3-methylphenylcarbamoyl)-piperazin-1-yl]-6-(3,4-dimethoxy-phenyl)-pyrido[3,2-d]pyrimidine]",0.8
2,COc1ccc(-c2ccc3nc(N4CCOCC4)nc(N4CCN(C(=O)Nc5cccc(C)c5)CC4)c3n2)cc1OC [Example 88],0.4
3,COc1ccc(-c2ccc3nc(Nc4ccc(F)c(Cl)c4)nc(N4CCN(C(=O)Nc5cccc(C)c5)CC4)c3n2)cc1OC [Example 92],1.2

# Same assay, conditions: Homo sapiens, RPMI-1788; 50% suppression of the MLR, [3H]-thymidine incorporation; read-out: MLR
row,Compound,IC50 [µM]
1,COc1ccc(-c2ccc3nc(N)nc(N4CC[C@H](NC(=O)Nc5cccc(C)c5)C4)c3n2)cc1OC [Example 221],1.3
2,COc1ccc(-c2ccc3nc(N)nc(N4CC[C@@H](NC(=O)Nc5cccc(C)c5)C4)c3n2)cc1OC [Example 260],2.1
3,"CC(=O)Nc1nc(-c2nc[nH]n2)c2nc(-c3ccc(Cl)c(Cl)c3)ccc2n1 [Example 145, 2-acetamido-4-(1,2,4-triazolyl)-6-(3,4-dichloro-phenyl)pyrido-[3,2-d]pyrimidine]",5.3
4,"Nc1nc(N2CCN(c3ccc(F)cc3)CC2)c2nc(-c3ccc(F)cc3)ccc2n1 [Example 204, 2-amino-4-[N-(4-fluoro-phenyl)-piperazin-1-yl]-6-(4-fluorophenyl)-pyrido[3,2-d]pyrimidine]",6.4

# Same assay, conditions: Homo sapiens, RPMI-1788; MLR assay of example 319; read-out: MLR IC50
row,Compound,IC50 [µM]
1,"Nc1nc(N2CCN(C(=O)CCOc3ccc(Cl)cc3)CC2)c2nc(-c3ccc(F)cc3)ccc2n1 [Example 473, 2-amino-4-{4-[3-(4-chlorophenoxy)propionyl]-piperazin-1-yl}-6-(4-fluorophenyl)-pyrido[3,2-d]pyrimidine]",0.5
2,"CCOc1ccc(-c2ccc3ncnc(N4CCN(C(=O)Nc5cccc(C)c5)CC4)c3n2)cc1Cl [Example 560, 4-[(3-methylphenylcarbamoyl)-piperazin-1-yl]-6-(3-chloro-4-ethoxyphenyl)pyrido[3,2-d]pyrimidine]",0.38
3,"Nc1cccc(-c2ccc3nc(N)nc(N4CCN(C(=O)COc5ccc(Cl)cc5)CC4)c3n2)c1 [Example 419, 2-amino-4-[4-(4-chlorophenoxyacetyl)piperazin-1-yl]-6-(3-aminophenyl)pyrido-[3,2-d]pyrimidine]",0.02
4,"Cc1cccc(NC(=O)N2CCN(c3ncnc4ccc(-c5cc(F)c(F)c(F)c5)nc34)CC2)c1 [Example 561, 4-[(3-methylphenylcarbamoyl)-piperazin-1-yl]-6-(3,4,5-trifluorophenyl)pyrido[3,2-d]pyrimidine]",0.42
5,"COc1ccc(-c2ccc3nc(N)nc(N4CCN(C(=O)COc5ccc(Cl)cc5)CC4)c3n2)cc1 [Example 426, 2-amino-4-[4-(4-chlorophenoxyacetyl)piperazin-1-yl]-6-(4-methoxyphenyl)pyrido-[3,2-d]pyrimidine]",0.03
6,"Nc1nc(N2CCN(C(=O)COc3ccc(Br)cc3)CC2)c2nc(-c3ccc(F)cc3)ccc2n1 [Example 388, 2-amino-4-[4-(4-bromophenoxyacetyl)piperazin-1-yl]-6-(4-fluorophenyl)-pyrido[3,2-d]pyrimidine]",0.05
7,"CC(C)(C)OC(=O)N1CCN(c2nc(N3CCCC3)nc3ccc(-c4ccc(F)cc4)nc23)CC1 [Example 567, 6-(4-fluorophenyl)-4-(4-Boc-piperazino)-2-pyrrolidino-pyrido[3,2-d]pyrimidine]",> 10
8,"CC(C)(C)OC(=O)N[C@H]1CCN(c2nc(N)nc3ccc(-c4ccc(F)cc4)nc23)C1 [Example 576, 2-amino-4-[(S)-3-Boc-amino-pyrrolidin-1-yl]-6-(4-fluorophenyl)-pyrido(3,2-d)pyrimidine]",4.2
9,"Nc1nc(N2CCN(C(=O)COc3ccc(Cl)cc3)CC2)c2nc(-c3ccc(Cl)cc3)ccc2n1 [Example 405, 2-amino-4-[4-(4-chlorophenoxyacetyl)piperazin-1-yl]-6-(4-chlorophenyl)pyrido-[3,2-d]pyrimidine]",0.05
10,"C[C@H]1CN(C(=O)OCc2ccccc2)CCN1c1nc(N)nc2ccc(-c3ccc(F)cc3)nc12 [Example 486, (S)-4-[2-amino-6-(4-fluorophenyl)-pyrido[3,2-d]pyrimidin-4-yl]-3-methylpiperazine-1-carboxylic acid benzyl ester]",0.8
11,"CNc1nc(N2CCN(C(=O)OC(C)(C)C)CC2)c2nc(-c3ccc(F)cc3)ccc2n1 [Example 569, 2-methylamino-6-(4-fluorophenyl)-4-(4-Boc-piperazino)-pyrido[3,2-d]pyrimidine and 2,4-dimethylamino-6-(4-fluorophenyl)pyrido[3,2-d]pyrimidine]",5.9
12,"COCC(=O)N1CCN(c2nc(N)nc3ccc(-c4ccc(F)cc4)nc23)CC1 [Example 462, 2-amino-4-[4-(methoxyacetyl)piperazin-1-yl]-6-(4-fluorophenyl)-pyrido[3,2-d]pyrimidine]",0.4
13,"CC(C)(C)OC(=O)N1CCCC(Nc2nc(N)nc3ccc(-c4ccc(F)cc4)nc23)C1 (stereo not shown) [Example 457, 2-amino-4-[1-(tert-butoxycarbonyl)piperid-3-ylamino]-6-(4-fluorophenyl)-pyrido[3,2-d]pyrimidine]",6.6
14,"CSc1ccc(-c2ccc3nc(N)nc(N4CCN(C(=O)COc5ccc(Cl)cc5)CC4)c3n2)cc1 [Example 495, 2-amino-4-[N-(4-chlorophenoxyacetyl)-piperazin-1-yl]-6-(4-methylthiophenyl)-pyrido(3,2-d)pyrimidine]",0.022
15,"CCOc1ccc(-c2ccc3nc(N)nc(N4CCN(C(=O)COc5ccc(Cl)cc5)CC4)c3n2)cc1Cl [Example 493, 2-amino-4-[N-(4-chlorophenoxyacetyl)-piperazin-1-yl]-6-(3-chloro-4-ethoxyphenyl)-pyrido(3,2-d)pyrimidine]",0.057
16,Cc1cccc(NC(=O)N[C@H]2CCN(c3nc(N)nc4ccc(-c5ccc(F)cc5)nc34)C2)c1 [Example 578],> 10
17,"Cc1cccc(NC(=O)N2CCN(c3nc(N)nc4ccc(-c5c(F)cc(F)cc5F)nc34)CC2)c1 [Example 551, 2-amino-4-[(3-methylphenylcarbamoyl)-piperazin-1-yl]-6-(2,4,6-trifluoro-phenyl)-pyrido[3,2-d]pyrimidine]",0.5
18,"Nc1nc(N2CCN(C(=O)Oc3ccc(Cl)cc3)CC2)c2nc(-c3ccc(F)cc3)ccc2n1 [Example 469, 2-amino-4-[4-(4-chlorophenoxycarbonyl)piperazin-1-yl]-6-(4-fluorophenyl)-pyrido[3,2-d]pyrimidine]",0.5
19,"CNC(=O)c1ccc(-c2ccc3nc(N)nc(N4CCN(C(=O)COc5ccc(Cl)cc5)CC4)c3n2)cc1 [Example 443, 2-amino-4-[4-(4-chlorophenoxyacetyl)piperazin-1-yl]-6-[4-(methylaminocarbonyl)phenyl]-pyrido-[3,2-d]pyrimidine]",0.007
20,"Nc1nc(N2CCN(C(=O)C(N)Cc3ccc(Cl)cc3)CC2)c2nc(-c3ccc(F)cc3)ccc2n1 (stereo in doubt) [Example 488, (S)-2-amino-4-{4-[3-(4-chlorophenyl)-2-aminopropionyl]piperazin-1-yl}-6-(4-fluorophenyl)-pyrido[3,2-d]pyrimidine]",4.3
21,"N#Cc1cccc(-c2ccc3nc(N)nc(N4CCN(C(=O)COc5ccc(Cl)cc5)CC4)c3n2)c1 [Example 414, 2-amino-4-[4-(4-chlorophenoxyacetyl)piperazin-1-yl]-6-(3-cyanophenyl)pyrido-[3,2-d]pyrimidine]",0.02
22,"COc1ccc(-c2ccc3nc(N)nc(N4CCN(C(=O)CNC(=O)OC(C)(C)C)CC4)c3n2)cc1OC [Example 396, 2-amino-4-{4-[N-(tert-butoxycarbonyl)-glycyl]-piperazin-1-yl}-6-(3,4-di-methoxyphenyl)-pyrido[3,2-d]pyrimidine]",0.05
23,"Nc1nc(N2CCN(C(=O)COc3ccc(Cl)cc3)CC2)c2nc(-c3ccsc3)ccc2n1 [Example 403, 2-amino-4-[4-(4-chlorophenoxyacetyl)piperazin-1-yl]-6-(thiophen-3-yl)pyrido-[3,2-d]pyrimidine]",0.04
24,"Cc1cc(-c2ccc3nc(N)nc(N4CCN(C(=O)COc5ccc(Cl)cc5)CC4)c3n2)ccc1F [Example 420, 2-amino-4-[4-(4-chlorophenoxyacetyl)piperazin-1-yl]-6-(4-fluoro-3-methylphenyl)-pyrido-[3,2-d]pyrimidine]",0.3
25,"COc1cccc(-c2ccc3nc(N)nc(N4CCN(C(=O)COc5ccc(Cl)cc5)CC4)c3n2)c1 [Example 418, 2-amino-4-[4-(4-chlorophenoxyacetyl)piperazin-1-yl]-6-(3-methoxyphenyl)pyrido-[3,2-d]pyrimidine]",0.057
26,"COCc1cccc(-c2ccc3nc(N)nc(N4CCN(C(=O)COc5ccc(Cl)cc5)CC4)c3n2)c1 [Example 500, 2-amino-4-[N-(4-chlorophenoxyacetyl)-piperazin-1-yl]-6-(3-methoxy-methylphenyl)-pyrido(3,2-d)pyrimidine]",0.031
27,"Nc1nc(N2CCN(C(=O)NC3CCCC3)CC2)c2nc(-c3ccc(F)cc3)ccc2n1 [Example 454, 2-amino-4-[4-(N-cyclopentylcarbamoyl)-piperazin-1-yl]-6-(4-fluorophenyl)-pyrido[3,2-d]pyrimidine]",0.4
